Where a SMILES comes first, the peptide text is derived from it.
Experiments:
NAALADase = NAALADase with NAAG as substrate; cited from earlier work
PSMA = PSMA (Homo sapiens, UniProt Q04609); assay: 3H-NAAG assay of PSMA enzymatic activity; type: biochemical
From the text: To determine the effects of several PSMA ligands and modified PSMA ligands (β-AG/78) on PSMA activity, ^3H-NAAG assay (Slusher et al., J. Biol. Chem., 1990, 265: 21297-301) was used to measure the activity of PSMA at the presence or absence of several PSMA ligands.
β-AG/78 (FIG. 5, bottom panel) is a conjugate of β-AG and the near-infrared fluorophore IRDye78. The conjugate can be synthesized using a similar scheme as shown in Example 1, and the product can be purified using either TLC (not shown) or HPLC, as shown in FIG. 6. As a control, IRDye78 was also tested. The results were shown as percentage of remaining PSMA activity as compared to PSMA activity without any additives, over a range of inhibitor concentrations.

PSMA, sequence (Q04609 whole entry): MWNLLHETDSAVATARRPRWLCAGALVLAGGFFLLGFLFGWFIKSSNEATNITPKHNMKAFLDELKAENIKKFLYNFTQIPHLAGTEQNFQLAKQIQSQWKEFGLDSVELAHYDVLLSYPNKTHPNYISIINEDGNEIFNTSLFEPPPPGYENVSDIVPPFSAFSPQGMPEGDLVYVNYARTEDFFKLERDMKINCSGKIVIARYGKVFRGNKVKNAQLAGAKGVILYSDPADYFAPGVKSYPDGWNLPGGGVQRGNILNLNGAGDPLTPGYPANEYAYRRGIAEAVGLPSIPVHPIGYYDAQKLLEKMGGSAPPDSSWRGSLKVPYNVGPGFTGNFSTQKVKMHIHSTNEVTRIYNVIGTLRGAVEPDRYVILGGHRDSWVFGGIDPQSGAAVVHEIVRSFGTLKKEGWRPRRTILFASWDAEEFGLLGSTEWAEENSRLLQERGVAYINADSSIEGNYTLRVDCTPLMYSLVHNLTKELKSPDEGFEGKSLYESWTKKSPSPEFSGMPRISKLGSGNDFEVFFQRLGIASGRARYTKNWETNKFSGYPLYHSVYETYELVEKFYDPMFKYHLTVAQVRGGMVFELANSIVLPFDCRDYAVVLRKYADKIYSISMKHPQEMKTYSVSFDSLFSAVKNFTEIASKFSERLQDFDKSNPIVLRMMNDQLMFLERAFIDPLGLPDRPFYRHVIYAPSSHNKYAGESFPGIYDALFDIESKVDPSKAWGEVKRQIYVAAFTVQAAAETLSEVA

In the case of `CC(=O)N[C@@H](CC(=O)O)C(=O)N[C@@H](CCC(=O)O)C(=O)O` [NAAG, N-acetyl-aspartyl-glutamate] (Ac-Asp-Glu-OH), the Km (NAALADase) is given as 0.54 µM.
With `N[C@@H](CC(=O)N[C@@H](CCC(=O)O)C(=O)O)C(=O)O` [β-AG, β-Asp-Glu] the “inhibitory potency relative to comparator” value (PSMA; comparison of inhibition curves) was “slightly less potent than that of beta-N-acetyl-AG (β-NAAG)” and the “inhibition of PSMA enzymatic activity” value (PSMA; percentage of remaining PSMA activity over a range of inhibitor concentrations) was “is indeed an inhibitor of PSMA enzymatic activity”.

From patent US6875886B2, “Modified PSMA ligands and uses related thereto” (Beth Israel Deaconess Medical Center, Inc., priority 2001, dated 2005)
